According to ChEMBL document CHEMBL1201862, “PubChem BioAssay data set” (2004):
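Cultured in 96-well plates, cells were exposed to test compound for 48 hours across five concentrations. GI50 = concentration required for 50% inhibition of growth.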 Active and inactive are the calls of the source. Rule as the data show it: active = GI50 up to about 1.1 µM and inactive = higher.

Key:
Experiment in all cases: growth of human tumour cells (NCI), 48 h
TK-10 = test system: TK-10
DU-145 = test system: DU-145
HCT-116 = test system: HCT-116
UACC-257 = test system: UACC-257
ACHN = test system: ACHN
PC-3 = test system: PC-3
SK-MEL-5 = test system: SK-MEL-5
BT-549 = test system: BT-549
RXF 393 = test system: RXF 393
HCC 2998 = test system: HCC 2998
SK-MEL-28 = test system: SK-MEL-28
SNB-19 = test system: SNB-19
A549 = test system: A549
MDA-MB-435 = test system: MDA-MB-435
IGROV-1 = test system: IGROV-1
M14 = test system: M14
OVCAR-8 = test system: OVCAR-8
UO-31 = test system: UO-31
HOP-92 = test system: HOP-92
NCI-H522 = test system: NCI-H522

Structure (SMILES)	GI50 (TK-10)	GI50 (DU-145)	GI50 (HCT-116)	GI50 (UACC-257)	GI50 (ACHN)	GI50 (PC-3)	GI50 (SK-MEL-5)	GI50 (BT-549)	GI50 (RXF 393)	GI50 (HCC 2998)	GI50 (SK-MEL-28)	GI50 (SNB-19)	GI50 (A549)	GI50 (MDA-MB-435)	GI50 (IGROV-1)	GI50 (M14)	GI50 (OVCAR-8)	GI50 (UO-31)	GI50 (HOP-92)	GI50 (NCI-H522)
N#CC(c1ccccc1)N(CCOCCOCCN(C(=O)c1cccc2ccccc12)C(C#N)c1ccccc1)C(=O)c1cccc2ccccc12 (centres undefined)	> 100 µM (inactive)	> 100 µM (inactive)	9.55 µM (inactive)	> 100 µM (inactive)	> 100 µM (inactive)	> 100 µM (inactive)	> 100 µM (inactive)	> 100 µM (inactive)	> 100 µM (inactive)	> 100 µM (inactive)	> 100 µM (inactive)	> 100 µM (inactive)	17.5 µM (inactive)	> 100 µM (inactive)	> 100 µM (inactive)	> 100 µM (inactive)	> 100 µM (inactive)	> 100 µM (inactive)		
Cc1ccc(S(=O)(=O)N(CC(O)COc2ccccc2)c2c(F)cccc2F)cc1 (centres undefined)	33.7 µM (inactive)	24.9 µM (inactive)		21.8 µM (inactive)	17.3 µM (inactive)	14.3 µM (inactive)	13.8 µM (inactive)		10.5 µM (inactive)	21.1 µM (inactive)	16.3 µM (inactive)	33.3 µM (inactive)	17.3 µM (inactive)	15.4 µM (inactive)		15.5 µM (inactive)	17 µM (inactive)	15.7 µM (inactive)	0.114 µM (active)	
Cc1cc(N(CCC#N)CCC#N)ccc1C(/N=N/c1ccccc1)=N\NC(=O)c1ccccc1	7.66 µM (inactive)	21.7 µM (inactive)	20.6 µM (inactive)	38.5 µM (inactive)	16.4 µM (inactive)	16.9 µM (inactive)	18.7 µM (inactive)	24 µM (inactive)	58.1 µM (inactive)	22.9 µM (inactive)		40.4 µM (inactive)	38.8 µM (inactive)	8.04 µM (inactive)	28.2 µM (inactive)	69 µM (inactive)	24.3 µM (inactive)	17.9 µM (inactive)		16.3 µM (inactive)
O=c1oc2c/c(=C\c3ccccn3)c(=O)c3cccc1c3-2	66.8 µM (inactive)	> 100 µM (inactive)	35.2 µM (inactive)	> 100 µM (inactive)	44.7 µM (inactive)	72.6 µM (inactive)	> 100 µM (inactive)		5.56 µM (inactive)	> 100 µM (inactive)	> 100 µM (inactive)	68.2 µM (inactive)		> 100 µM (inactive)	90.8 µM (inactive)	> 100 µM (inactive)	16.5 µM (inactive)		> 100 µM (inactive)	16.1 µM (inactive)
C/C=C1\CC(C(=O)OCC)CCCCCCCCCCC1=O (centres undefined)	> 100 µM (inactive)	54.3 µM (inactive)	33.4 µM (inactive)	37.8 µM (inactive)	75 µM (inactive)	47.9 µM (inactive)	29.2 µM (inactive)	82.8 µM (inactive)	55.8 µM (inactive)		> 100 µM (inactive)	69.2 µM (inactive)	51.3 µM (inactive)	17.5 µM (inactive)	31.8 µM (inactive)	> 100 µM (inactive)	43.3 µM (inactive)	37.3 µM (inactive)		25.5 µM (inactive)
COc1ccc2oc(OC)c(CC=C(C)C)c(=O)c2c1C	> 100 µM (inactive)	> 100 µM (inactive)	> 100 µM (inactive)	> 100 µM (inactive)	> 100 µM (inactive)	> 100 µM (inactive)	> 100 µM (inactive)	> 100 µM (inactive)		> 100 µM (inactive)	> 100 µM (inactive)	> 100 µM (inactive)	> 100 µM (inactive)	> 100 µM (inactive)	> 100 µM (inactive)	> 100 µM (inactive)	> 100 µM (inactive)	> 100 µM (inactive)		> 100 µM (inactive)
C[C@]12CCC(=O)O[C@H]1CCCCO2	> 100 µM (inactive)	> 100 µM (inactive)	> 100 µM (inactive)	> 100 µM (inactive)		> 100 µM (inactive)	> 100 µM (inactive)		> 100 µM (inactive)	> 100 µM (inactive)	> 100 µM (inactive)		> 100 µM (inactive)	> 100 µM (inactive)	> 100 µM (inactive)	> 100 µM (inactive)	> 100 µM (inactive)		28.1 µM (inactive)	> 100 µM (inactive)
COC(=O)CCc1ccc2c(c1)C(=O)CC2	> 100 µM (inactive)	> 100 µM (inactive)	> 100 µM (inactive)	> 100 µM (inactive)	> 100 µM (inactive)	> 100 µM (inactive)	> 100 µM (inactive)		> 100 µM (inactive)	> 100 µM (inactive)	> 100 µM (inactive)	> 100 µM (inactive)	> 100 µM (inactive)	> 100 µM (inactive)	> 100 µM (inactive)	> 100 µM (inactive)	> 100 µM (inactive)	> 100 µM (inactive)	> 100 µM (inactive)	> 100 µM (inactive)
Cc1ccc(-c2cc[n+]3c(n2)oc2ccccc23)cc1		51.8 µM (inactive)	29.8 µM (inactive)	18.8 µM (inactive)	28.6 µM (inactive)			28.2 µM (inactive)		30.5 µM (inactive)	22.1 µM (inactive)	69.8 µM (inactive)	53.3 µM (inactive)	24.7 µM (inactive)	26.8 µM (inactive)	25.9 µM (inactive)	21.2 µM (inactive)	67.3 µM (inactive)	14.2 µM (inactive)	5.98 µM (inactive)
OC(CCNCc1ccccc1)c1ccc2ccccc2c1 (centres undefined)	18.3 µM (inactive)	18.3 µM (inactive)	22.4 µM (inactive)	18 µM (inactive)	18.3 µM (inactive)	20.3 µM (inactive)	17.2 µM (inactive)		16.7 µM (inactive)	36.2 µM (inactive)	18.4 µM (inactive)	23.7 µM (inactive)	19 µM (inactive)	23 µM (inactive)	16 µM (inactive)	36.1 µM (inactive)	23.3 µM (inactive)	16 µM (inactive)		18.7 µM (inactive)
COc1cc(OC)c(-c2oc3ccccc3c(=O)c2O)c(OC)c1	> 100 µM (inactive)		3.76 µM (inactive)	> 91.6 µM (inactive)	> 29 µM (inactive)	5.69 µM (inactive)	3.68 µM (inactive)	1.67 µM (inactive)	2.43 µM (inactive)	0.586 µM (active)	> 22.8 µM (inactive)	> 57.1 µM (inactive)	4.9 µM (inactive)	0.889 µM (active)	4.37 µM (inactive)	2.55 µM (inactive)	10.4 µM (inactive)	> 62.7 µM (inactive)	8.17 µM (inactive)	2.75 µM (inactive)
COc1cc2c(c(OC)c1OC)-c1ccc(OC)c(=O)cc1C(NC(=O)c1ccc(N=[N+]=[N-])cc1)CC2 (centres undefined)	13 µM (inactive)	0.0378 µM (active)	0.0334 µM (active)	0.615 µM (active)	0.0809 µM (active)		0.0264 µM (active)	0.0507 µM (active)	0.0185 µM (active)	0.0215 µM (active)	0.789 µM (active)	0.0767 µM (active)	0.0408 µM (active)	0.0134 µM (active)	0.0466 µM (active)	0.037 µM (active)	0.0335 µM (active)	9.08 µM (inactive)	0.0396 µM (active)	0.0175 µM (active)
Cn1c(N(CCO)CCO)cnc1[N+](=O)[O-]	> 100 µM (inactive)		> 100 µM (inactive)	> 100 µM (inactive)	> 100 µM (inactive)	> 100 µM (inactive)	> 100 µM (inactive)	> 100 µM (inactive)	> 100 µM (inactive)			> 100 µM (inactive)	> 100 µM (inactive)	> 100 µM (inactive)	> 100 µM (inactive)	> 100 µM (inactive)	> 100 µM (inactive)	> 100 µM (inactive)	> 100 µM (inactive)	> 100 µM (inactive)
Cc1cc(N(C)c2ccccc2)nc(N(C)c2ccccc2)n1	55.7 µM (inactive)	92.3 µM (inactive)	19.6 µM (inactive)	25.4 µM (inactive)	28.4 µM (inactive)	43.3 µM (inactive)	27.1 µM (inactive)		22 µM (inactive)	36.9 µM (inactive)	35.5 µM (inactive)	88.1 µM (inactive)	27.5 µM (inactive)	42.9 µM (inactive)	39 µM (inactive)	41.3 µM (inactive)	33 µM (inactive)	80.2 µM (inactive)		36.9 µM (inactive)
N#C[C@H]1C(=O)C(c2nc3ccccc3[nH]2)S[C@H]1c1ccccc1 (some centres undefined)	95.9 µM (inactive)	45.1 µM (inactive)	27.4 µM (inactive)	63.2 µM (inactive)	20 µM (inactive)		25.2 µM (inactive)	26.5 µM (inactive)	19.1 µM (inactive)	50 µM (inactive)	54.8 µM (inactive)	45.4 µM (inactive)	45.4 µM (inactive)	35 µM (inactive)	26.9 µM (inactive)	33.3 µM (inactive)	43.2 µM (inactive)	26.9 µM (inactive)	25.5 µM (inactive)	21.2 µM (inactive)
[O-][S+](CC1(O)CCCCC1)c1ccccc1 (centres undefined)	> 100 µM (inactive)	> 100 µM (inactive)	> 100 µM (inactive)	> 100 µM (inactive)	> 100 µM (inactive)	> 100 µM (inactive)	> 100 µM (inactive)	> 100 µM (inactive)	> 100 µM (inactive)	> 100 µM (inactive)	> 100 µM (inactive)	> 100 µM (inactive)	> 100 µM (inactive)		> 100 µM (inactive)	> 100 µM (inactive)	> 100 µM (inactive)	> 100 µM (inactive)		> 100 µM (inactive)
